{
  "source": "patent US8129399B2",
  "about": "“Aminopyrimidines useful as kinase inhibitors” (Vertex Pharmaceuticals Incorporated, priority 2005, dated 2012)",
  "key": {"MLK1": {"target": "MLK1 (Homo sapiens, UniProt P80192)", "sequence (P80192 whole entry, species assumed)": "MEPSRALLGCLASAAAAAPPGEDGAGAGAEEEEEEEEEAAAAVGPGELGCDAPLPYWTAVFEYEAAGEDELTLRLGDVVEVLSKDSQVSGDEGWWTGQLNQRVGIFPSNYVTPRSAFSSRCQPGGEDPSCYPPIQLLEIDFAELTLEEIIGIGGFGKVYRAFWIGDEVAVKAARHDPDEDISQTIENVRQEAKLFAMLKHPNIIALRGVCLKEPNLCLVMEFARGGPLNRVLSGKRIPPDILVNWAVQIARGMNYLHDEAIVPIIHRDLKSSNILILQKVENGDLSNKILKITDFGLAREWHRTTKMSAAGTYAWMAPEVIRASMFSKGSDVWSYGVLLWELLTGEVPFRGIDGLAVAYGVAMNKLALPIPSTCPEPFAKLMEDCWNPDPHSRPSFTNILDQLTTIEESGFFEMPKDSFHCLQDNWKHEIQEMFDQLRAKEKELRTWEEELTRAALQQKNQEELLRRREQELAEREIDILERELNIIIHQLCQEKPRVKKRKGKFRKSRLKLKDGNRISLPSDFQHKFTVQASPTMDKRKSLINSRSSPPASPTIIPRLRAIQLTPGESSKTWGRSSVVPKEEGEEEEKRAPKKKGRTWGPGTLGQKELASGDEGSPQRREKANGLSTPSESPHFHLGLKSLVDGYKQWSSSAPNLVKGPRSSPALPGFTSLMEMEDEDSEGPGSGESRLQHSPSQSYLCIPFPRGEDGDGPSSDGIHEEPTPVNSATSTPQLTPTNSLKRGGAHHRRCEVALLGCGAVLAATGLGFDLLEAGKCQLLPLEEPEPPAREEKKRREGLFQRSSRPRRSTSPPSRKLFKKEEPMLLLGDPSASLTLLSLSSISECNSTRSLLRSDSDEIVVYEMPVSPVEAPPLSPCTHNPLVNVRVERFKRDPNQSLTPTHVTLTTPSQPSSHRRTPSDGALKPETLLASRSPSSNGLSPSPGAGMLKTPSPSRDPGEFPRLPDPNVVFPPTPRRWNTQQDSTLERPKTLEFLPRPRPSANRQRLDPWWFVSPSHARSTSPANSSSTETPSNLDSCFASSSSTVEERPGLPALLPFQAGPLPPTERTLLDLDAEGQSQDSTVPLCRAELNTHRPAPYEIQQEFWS", "assay": "MLK1 inhibition screen", "format": "biochemical", "settings": "ATP at or close to Km", "from_the_text": "(§1) Compound(s) were screened for their ability to inhibit Arg (Abl-2), FGFR1, MLK1, Tie2, and TrkA using screening methods known to one of ordinary skill in the art. All of the above enzymes were screened with ATP concentrations at or close to the Km for ATP."}, "TrkA": {"target": "TrkA (Homo sapiens, UniProt P04629)", "sequence (P04629 33-796, species assumed)": "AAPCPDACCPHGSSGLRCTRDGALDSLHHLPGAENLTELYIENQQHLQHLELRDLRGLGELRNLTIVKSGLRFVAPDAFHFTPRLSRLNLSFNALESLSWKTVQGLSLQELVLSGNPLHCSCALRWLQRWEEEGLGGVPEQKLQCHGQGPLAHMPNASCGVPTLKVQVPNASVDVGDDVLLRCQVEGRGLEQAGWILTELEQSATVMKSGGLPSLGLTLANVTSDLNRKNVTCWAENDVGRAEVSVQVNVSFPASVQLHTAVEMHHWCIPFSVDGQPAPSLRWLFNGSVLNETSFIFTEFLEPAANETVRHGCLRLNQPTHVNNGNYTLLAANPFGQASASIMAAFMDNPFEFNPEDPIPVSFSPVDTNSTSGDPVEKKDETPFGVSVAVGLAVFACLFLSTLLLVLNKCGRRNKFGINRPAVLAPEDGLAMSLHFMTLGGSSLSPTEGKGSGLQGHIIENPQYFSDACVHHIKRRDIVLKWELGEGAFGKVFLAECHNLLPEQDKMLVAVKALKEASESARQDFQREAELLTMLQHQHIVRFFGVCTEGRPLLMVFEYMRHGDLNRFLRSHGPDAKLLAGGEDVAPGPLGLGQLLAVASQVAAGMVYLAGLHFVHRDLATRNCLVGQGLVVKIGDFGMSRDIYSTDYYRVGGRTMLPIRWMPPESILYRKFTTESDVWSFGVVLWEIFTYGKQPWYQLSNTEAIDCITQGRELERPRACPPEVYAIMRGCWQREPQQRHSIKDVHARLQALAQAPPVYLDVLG", "assay": "TrkA inhibition screen", "format": "biochemical", "settings": "ATP at or close to Km", "from_the_text": "as §1"}, "[1]": {"settings": "Table 6, introduced as Ki values"}},
  "data": [
    {"smiles": "Cc1cc(Nc2cc(N3CC(F)(C4CC4)C3)nc(Sc3ccc(NC(=O)CC(F)(F)F)cc3)n2)[nH]n1", "note": "[Compound I-14, N-(4-(4-(3-methyl-1H-pyrazol-5-ylamino)-6-(3-cyclopropyl-3-fluoroazetidin-1-yl)pyrimidin-2-ylthio)phenyl)-3,3,3-trifluoropropanamide]", "values": [
      {"measurement": "IC50", "setting": "MLK1; Table 5", "value": 0.027, "unit": "µM"},
      {"measurement": "IC50", "setting": "MLK1; [1]", "value": 0.014, "unit": "µM"},
      {"measurement": "IC50", "setting": "TrkA; Table 5", "value": 0.018, "unit": "µM"},
      {"measurement": "IC50", "setting": "TrkA; [1]", "value": 0.005, "unit": "µM"}
    ]}
  ]
}
